Experimental data from US8163269B2, “Bioactive stents for type II diabetics and methods for use thereof” (priority 2004, dated 2012).
No end group written: not given here.

Test system: ECs
Assay: adhesion assay with peptides conjugated to PEA polymer
Format: cell-based, Human
Design: key to adhesion assay microscopic observation, cell shape: r = round; s = spindly; sp = spread
Experimental: The attachment factor, in a phosphate buffered saline (PBS) solution, was coated onto a non-tissue culture dish and allowed to adsorb overnight at 4° C. The following day the plate was blocked for 1 hour at room temperature with heat-inactivated, 0.2% bovine serum albumin (BSA) solution (in PBS) to prevent non-specific attachment. A timed adhesion assay was then conducted. The assay includes negative control wells coated only with PBS and positive control wells coated with fibronectin. So far, none of the adhesion factors tested has surpassed the cell adhesion and cell spreading induced by fibronectin. In addition to adhesion, spreading is also an important consideration in determining the suitability of a substrate. If the cells are not able to spread, it is unlikely that the cells will proliferate on that surface.
The first conjugation was done to the PEA-H version of the polymer (acid) since this polymer has suitable sites for conjugation. The peptides can be covalently bound to this polymer via a wide variety of suitable functional groups. For example, when the biodegradable polymer is a poly(ester amide) (PEA) containing Lysine residues, the carboxyl groups from the Lysine residues can be used to react with a complementary moiety on the peptide, such as an hydroxy, amino, thio moiety, and the like (5). Specifically, the PEA-H polymer with free COOH reacts with water soluble carbodiimide (WSC) and N-Hydroxysuccinimide (HOSu) to produce an activated ester, which, in turn, reacts with an amino functional group of a peptide to provide an amide linkage (FIG. 6B). By using a fluorescent dansyl-lysine (FIG. 5), the optimal reaction conditions for activation and conjugation were determined (FIG. 6A).
The conjugation of CS5 and GREDVDY peptides to the polymer was then performed using the same protocol (FIG. 6B).
A similar protocol (see flow chart FIG. 6B) was used to conjugate combinations of the acid polymer with PEA polymer of structure (I) containing acetylated ends and benzylated COOH groups, (PEA-AcBz) and PEA-TEMPO (50/50 and 10/90), respectively. By combining the conjugatable acid form with the other polymers, a determination could be made whether the presence of the recruitment peptide on the polymer conferred an advantage in EC recruitment.
Microscopic observations taken at 2 h, 4 h and 6 h from duplicate wells from two representative adhesion assays are summarized in Table 2 below.

[1] = 2 h, 10/90 H/Bz (10% PEA-H and 90% PEA-Ac-Bz), Assay 1
[2] = 2 h, 10/90 H/Bz (10% PEA-H and 90% PEA-Ac-Bz), Assay 2
[3] = 2 h, 10/90 H/T (10% PEA-H and 90% PEA-Ac-TEMPO), Assay 1
[4] = 2 h, 10/90 H/T (10% PEA-H and 90% PEA-Ac-TEMPO), Assay 2
[5] = 2 h, 50/50 H/Bz (50% PEA-H and 50% PEA-Ac-Bz), Assay 1
[6] = 2 h, 50/50 H/Bz (50% PEA-H and 50% PEA-Ac-Bz), Assay 2
[7] = 2 h, 50/50 H/T (50% PEA-H and 50% PEA-Ac-TEMPO), Assay 1
[8] = 2 h, 50/50 H/T (50% PEA-H and 50% PEA-Ac-TEMPO), Assay 2
[9] = 4 h, 10/90 H/Bz (10% PEA-H and 90% PEA-Ac-Bz), Assay 1
[10] = 4 h, 10/90 H/Bz (10% PEA-H and 90% PEA-Ac-Bz), Assay 2
[11] = 4 h, 10/90 H/T (10% PEA-H and 90% PEA-Ac-TEMPO), Assay 1
[12] = 4 h, 10/90 H/T (10% PEA-H and 90% PEA-Ac-TEMPO), Assay 2
[13] = 4 h, 50/50 H/Bz (50% PEA-H and 50% PEA-Ac-Bz), Assay 1
[14] = 4 h, 50/50 H/Bz (50% PEA-H and 50% PEA-Ac-Bz), Assay 2
[15] = 4 h, 50/50 H/T (50% PEA-H and 50% PEA-Ac-TEMPO), Assay 1
[16] = 4 h, 50/50 H/T (50% PEA-H and 50% PEA-Ac-TEMPO), Assay 2
[17] = 6 h, 10/90 H/Bz (10% PEA-H and 90% PEA-Ac-Bz), Assay 1
[18] = 6 h, 10/90 H/Bz (10% PEA-H and 90% PEA-Ac-Bz), Assay 2
[19] = 6 h, 10/90 H/T (10% PEA-H and 90% PEA-Ac-TEMPO), Assay 1
[20] = 6 h, 10/90 H/T (10% PEA-H and 90% PEA-Ac-TEMPO), Assay 2
[21] = 6 h, 50/50 H/Bz (50% PEA-H and 50% PEA-Ac-Bz), Assay 1
[22] = 6 h, 50/50 H/Bz (50% PEA-H and 50% PEA-Ac-Bz), Assay 2
[23] = 6 h, 50/50 H/T (50% PEA-H and 50% PEA-Ac-TEMPO), Assay 1
[24] = 6 h, 50/50 H/T (50% PEA-H and 50% PEA-Ac-TEMPO), Assay 2

Conj CS5: CS5 peptide (SEQ ID NO:1) conjugated to PEA-H mixed with PEA-Ac-Bz or PEA-Ac-TEMPO polymer coating (GEEIQIGHIPREDVDYHLYP; also: conjugated to PEA polymer coating)
adhesion assay microscopic observation, % [1]: 30%
adhesion assay microscopic observation, cell shape [1]: r/s
adhesion assay microscopic observation, % [2]: 30%
adhesion assay microscopic observation, cell shape [2]: r/s
adhesion assay microscopic observation, % [3]: 30%
adhesion assay microscopic observation, cell shape [3]: r/s
adhesion assay microscopic observation, % [4]: 30%
adhesion assay microscopic observation, cell shape [4]: r/s/sp
adhesion assay microscopic observation, % [5]: 20%
adhesion assay microscopic observation, cell shape [5]: r
adhesion assay microscopic observation, % [6]: 20-30%
adhesion assay microscopic observation, cell shape [6]: r
adhesion assay microscopic observation, % [7]: 20-30%
adhesion assay microscopic observation, cell shape [7]: r/s
adhesion assay microscopic observation, % [8]: 30%
adhesion assay microscopic observation, cell shape [8]: r/s
adhesion assay microscopic observation, % [9]: 40%
adhesion assay microscopic observation, cell shape [9]: r/sp
adhesion assay microscopic observation, % [10]: 30%
adhesion assay microscopic observation, cell shape [10]: s/sp
adhesion assay microscopic observation, % [11]: 30%
adhesion assay microscopic observation, cell shape [11]: r/s/sp
adhesion assay microscopic observation, % [12]: 30-40%
adhesion assay microscopic observation, cell shape [12]: s/sp
adhesion assay microscopic observation, % [13]: 30%
adhesion assay microscopic observation, cell shape [13]: r
adhesion assay microscopic observation, % [14]: 30%
adhesion assay microscopic observation, cell shape [14]: r/s/sp
adhesion assay microscopic observation, % [15]: 30%
adhesion assay microscopic observation, cell shape [15]: r
adhesion assay microscopic observation, % [16]: 30-40%
adhesion assay microscopic observation, cell shape [16]: r/s/sp
adhesion assay microscopic observation, % [17]: 30-40%
adhesion assay microscopic observation, cell shape [17]: s/sp
adhesion assay microscopic observation, % [18]: 30%
adhesion assay microscopic observation, cell shape [18]: r/s/sp
adhesion assay microscopic observation, % [19]: 30-40%
adhesion assay microscopic observation, cell shape [19]: r/s/sp
adhesion assay microscopic observation, % [20]: 30%
adhesion assay microscopic observation, cell shape [20]: r/s/sp
adhesion assay microscopic observation, % [21]: 20%
adhesion assay microscopic observation, cell shape [21]: r
adhesion assay microscopic observation, % [22]: 30%
adhesion assay microscopic observation, cell shape [22]: r/s
adhesion assay microscopic observation, % [23]: 20%
adhesion assay microscopic observation, cell shape [23]: r
adhesion assay microscopic observation, % [24]: 30%
adhesion assay microscopic observation, cell shape [24]: r/s

Conj REDV: GREDVDY peptide (SEQ ID NO:11) conjugated to PEA-H mixed with PEA-Ac-Bz or PEA-Ac-TEMPO polymer coating (also: conjugated to PEA polymer coating)
adhesion assay microscopic observation, % [1]: 30%
adhesion assay microscopic observation, cell shape [1]: r/s
adhesion assay microscopic observation, % [2]: 30%
adhesion assay microscopic observation, cell shape [2]: r/s/sp
adhesion assay microscopic observation, % [3]: 30%
adhesion assay microscopic observation, cell shape [3]: r/s
adhesion assay microscopic observation, % [4]: 30%
adhesion assay microscopic observation, cell shape [4]: r/s/sp
adhesion assay microscopic observation, % [5]: 20-30%
adhesion assay microscopic observation, cell shape [5]: r
adhesion assay microscopic observation, % [6]: 30-40%
adhesion assay microscopic observation, cell shape [6]: r/s/sp
adhesion assay microscopic observation, % [7]: 20-30%
adhesion assay microscopic observation, cell shape [7]: r
adhesion assay microscopic observation, % [8]: 30%
adhesion assay microscopic observation, cell shape [8]: r/s/sp
adhesion assay microscopic observation, % [9]: 30-40%
adhesion assay microscopic observation, cell shape [9]: r/s/sp
adhesion assay microscopic observation, % [10]: 30-40%
adhesion assay microscopic observation, cell shape [10]: s/sp
adhesion assay microscopic observation, % [11]: 30-40%
adhesion assay microscopic observation, cell shape [11]: s/sp
adhesion assay microscopic observation, % [12]: 40%
adhesion assay microscopic observation, cell shape [12]: s/sp
adhesion assay microscopic observation, % [13]: 30%
adhesion assay microscopic observation, cell shape [13]: s/sp
adhesion assay microscopic observation, % [14]: 30-40%
adhesion assay microscopic observation, cell shape [14]: s/sp
adhesion assay microscopic observation, % [15]: 30%
adhesion assay microscopic observation, % [16]: 30%
adhesion assay microscopic observation, cell shape [16]: r/s/sp
adhesion assay microscopic observation, % [17]: 30%
adhesion assay microscopic observation, cell shape [17]: s/sp
adhesion assay microscopic observation, % [18]: 30-40%
adhesion assay microscopic observation, cell shape [18]: r/s/sp
adhesion assay microscopic observation, % [19]: 30-40%
adhesion assay microscopic observation, cell shape [19]: r/s/sp
adhesion assay microscopic observation, % [20]: 40%
adhesion assay microscopic observation, cell shape [20]: s/sp
adhesion assay microscopic observation, % [21]: 30%
adhesion assay microscopic observation, cell shape [21]: r/s
adhesion assay microscopic observation, % [22]: 30-40%
adhesion assay microscopic observation, cell shape [22]: r/s/sp
adhesion assay microscopic observation, % [23]: 20%
adhesion assay microscopic observation, cell shape [23]: r
adhesion assay microscopic observation, % [24]: 30-40%
adhesion assay microscopic observation, cell shape [24]: s/sp
